Target: T1, FKBP51FK1 (Homo sapiens, UniProt Q13451)
T1 construct: FKBP51FK1
T1 sequence (Q13451 42-130 limits assumed): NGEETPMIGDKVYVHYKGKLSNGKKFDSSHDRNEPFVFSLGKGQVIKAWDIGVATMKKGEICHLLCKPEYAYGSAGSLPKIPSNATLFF
Assay: Binding affinities of exemplary compounds to FKBP51
Description: Binding to FKBP51 is an important prerequisite in order to allow degradation of FKBP51. Thus, the binding affinities of the newly synthesized molecules (table 1) were tested.

Row | SMILES | Ki
1 | COc1cccc([C@H](CCc2ccc(OCc3cn(CCOCC(=O)N[C@H](C(=O)N4C[C@H](O)C[C@H]4C(=O)NCc4ccc(-c5scnc5C)cc4)C(C)(C)C)nn3)c(OC)c2)OC(=O)[C@H]2CCCCN2C(=O)[C@H](c2cc(OC)c(OC)c(OC)c2)C2CCCCC2)c1 [MTQ328, (S)-(R)-3-(4-((1-(2-(2-(((S)-1-((2S,4R)-4-Hydroxy-2-((4-(4-methylthiazol-5-yl)benzyl)carbamoyl)pyrrolidin-1-yl)-3,3-dimethyl-1-oxobutan-2-yl)amino)-2-oxoethoxy)ethyl)-1H-1,2,3-triazol-4-yl)methoxy)-3-methoxyphenyl)-1-(3-methoxyphenyl)propyl 1-((S)-2-cyclohexyl-2-(3,4,5-trimethoxyphenyl)acetyl)piperidine-2-carboxylate] | 47 ± 19 nM
2 | COc1cccc([C@@H](CCc2ccc(OCc3cn(CCOCCOCCOCCOCCOCC(=O)N[C@H](C(=O)N4C[C@H](O)C[C@H]4C(=O)NCc4ccc(-c5scnc5C)cc4)C(C)(C)C)nn3)c(OC)c2)OC(=O)[C@@H]2CCCCN2C(=O)[C@H](c2cc(OC)c(OC)c(OC)c2)C2CCCCC2)c1 [MTQ332, (S)-(R)-3-(4-((1-((S)-19-((2S,4R)-4-Hydroxy-2-((4-(4-methylthiazo1-5-yl)benzyl)carbamoyl)pyrrolidine-1-carbonyl)-20,20-dimethyl-17-oxo-3,6,9,12,15-pentaoxa-18-azahenicosyl)-1H-1,2,3-triazol-4-yl)methoxy)-3-methoxyphenyl)-1-(3-methoxyphenyl)propyl 1-((S)-2-cyclohexyl-2-(3,4,5-trimethoxyphenyl)acetyl)piperidine-2-carboxylate] | 34 ± 10 nM
3 | COc1ccc(CC[C@H](OC(=O)[C@H]2CCCCN2C(=O)[C@H](c2cc(OC)c(OC)c(OC)c2)C2CCCCC2)c2cccc(OCc3cn(CCOCCOCCOCC(=O)N[C@H](C(=O)N4C[C@H](O)C[C@H]4C(=O)NCc4ccc(-c5scnc5C)cc4)C(C)(C)C)nn3)c2)cc1OC [MTQ201, (S)-(R)-3-(3,4-Dimethoxyphenyl)-1-(3-((1-((S)-13-((2S,4R)-4-hydroxy-2-((4-(4-methylthiazol-5-yl)benzyl)carbamoyl)pyrrolidine-1-carbonyl)-14,14-dimethyl-11-oxo-3,6,9-trioxa-12-azapentadecyl)-1H-1,2,3-triazol-4-yl)methoxy)phenyl)propyl 1-((S)-2-cyclohexyl-2-(3,4,5-trimethoxyphenyl)acetyl)piperidine-2-carboxylate] | 23 ± 7 nM
4 | COc1ccc(CC[C@@H](OC(=O)[C@@H]2CCCCN2C(=O)[C@H](c2cc(OC)c(OC)c(OC)c2)C2CCCCC2)c2cccc(OCc3cn(CCOCCOCC(=O)N[C@H](C(=O)N4C[C@H](O)C[C@H]4C(=O)NCc4ccc(-c5scnc5C)cc4)C(C)(C)C)nn3)c2)cc1OC [MTQ200] | 24 ± 7 nM
5 | COc1ccc(CC[C@@H](OC(=O)[C@@H]2CCCCN2C(=O)[C@H](c2cc(OC)c(OC)c(OC)c2)C2CCCCC2)c2cccc(OCc3cn(CCOCCOCCOCCOCCOCC(=O)Nc4cccc5c4C(=O)N(C4CCC(=O)NC4=O)C5=O)nn3)c2)cc1OC (stereo partly drawn) [MTQ208, (2S)-(1R)-3-(3,4-Dimethoxyphenyl)-1-(3-((1-(17-((2-(2,6-dioxopiperidin-3-yl)-1,3-dioxoisoindolin-4-yl)amino)-17-oxo-3,6,9,12,15-pentaoxaheptadecyl)-1H-1,2,3-triazol-4-yl)methoxy)phenyl)propyl 1-((S)-2-cyclohexyl-2-(3,4,5-trimethoxyphenyl)acetyl)piperidine-2-carboxylate] | 5 ± 1 nM
6 | COc1cccc([C@@H](CCc2ccc(OCc3cn(CCOCC(=O)Nc4cccc5c4C(=O)N(C4CCC(=O)NC4=O)C5=O)nn3)c(OC)c2)OC(=O)[C@@H]2CCCCN2C(=O)[C@H](c2cc(OC)c(OC)c(OC)c2)C2CCCCC2)c1 (stereo partly drawn) [MTQ333, (25)-(1R)-3-(4-((1-(2-(2-((2-(2,6-Dioxopiperidin-3-yl)-1,3-dioxoisoindolin-4-yl)amino)-2-oxoethoxy)ethyl)-1H-1,2,3-triazol-4-yl)methoxy)-3-methoxyphenyl)-1-(3-methoxyphenyl)propyl 1-((S)-2-cyclohexyl-2-(3,4,5-trimethoxyphenyl)acetyl)piperidine-2-carboxylate] | 22 ± 6 nM
7 | C#CCOc1cc(CCC(OC(=O)C2CCCCN2C(=O)[C@H](c2cc(OC)c(OC)c(OC)c2)C2CCCCC2)c2cccc(OC)c2)ccc1OC (stereo in doubt) [Molecule (10), (S)-(R)-3-(4-methoxy-3-(prop-2-yn-1-yloxy)phenyl)-1-(3-methoxyphenyl)propyl 1-((S)-2-cyclohexyl-2-(3,4,5-trimethoxyphenyl)acetyl)piperidine-2-carboxylate] | 149 ± 39 nM
8 | COc1ccc(CC[C@@H](OC(=O)[C@@H]2CCCCN2C(=O)[C@H](c2cc(OC)c(OC)c(OC)c2)C2CCCCC2)c2cccc(OCc3cn(CCOCCOCCOCCOCC(=O)Nc4cccc5c4C(=O)N(C4CCC(=O)NC4=O)C5=O)nn3)c2)cc1OC (stereo partly drawn) [MTQ207, (2S)-(1R)-3-(3,4-Dimethoxyphenyl)-1-(3-((1-(14-((2-(2,6-dioxopiperidin-3-yl)-1,3-dioxoisoindolin-4-yl)amino)-14-oxo-3,6,9,12-tetraoxatetradecyl)-1H-1,2,3-triazol-4-yl)methoxy)phenyl)propyl 1-((S)-2-cyclohexyl-2-(3,4,5-trimethoxyphenyl)acetyl)piperidine-2-carboxylate] | 18 ± 4 nM
9 | COc1cccc([C@@H](CCc2ccc(OCc3cn(CCOCCOCC(=O)Nc4cccc5c4C(=O)N(C4CCC(=O)NC4=O)C5=O)nn3)c(OC)c2)OC(=O)[C@@H]2CCCCN2C(=O)[C@H](c2cc(OC)c(OC)c(OC)c2)C2CCCCC2)c1 (stereo partly drawn) [MTQ334, (25)-(1R)-3-(4-((1-(2-(2-(2-((2-(2,6-Dioxopiperidin-3-yl)-1,3-dioxoisoindolin-4-yl)amino)-2-oxoethoxy)ethoxy)ethyl)-1H-1,2,3-triazol-4-yl)methoxy)-3-methoxyphenyl)-1-(3-methoxyphenyl)propyl 1-((S)-2-cyclohexyl-2-(3,4,5-trimethoxyphenyl)acetyl)piperidine-2-carboxylate] | 21 ± 10 nM
10 | COc1ccc(CC[C@H](OC(=O)[C@H]2CCCCN2C(=O)[C@H](c2cc(OC)c(OC)c(OC)c2)C2CCCCC2)c2cccc(OCc3cn(CCOCCOCCOCCOCCOCC(=O)N[C@H](C(=O)N4C[C@H](O)C[C@H]4C(=O)NCc4ccc(-c5scnc5C)cc4)C(C)(C)C)nn3)c2)cc1OC [MTQ203, (S)-(R)-3-(3,4-Dimethoxyphenyl)-1-(3-((1-((S)-19-((2S,4R)-4-hydroxy-2-((4-(4-methylthiazol-5-yl)benzyl)carbamoyl)pyrrolidine-1-carbonyl)-20,20-dimethyl-17-oxo-3,6,9,12,15-pentaoxa-18-azahenicosyl)-1H-1,2,3-triazol-4-yl)methoxy)phenyl)propyl 1-((S)-2-cyclohexyl-2-(3,4,5-trimethoxyphenyl)acetyl)piperidine-2-carboxylate] | 12 ± 3 nM
11 | COc1ccc(CC[C@@H](OC(=O)[C@@H]2CCCCN2C(=O)[C@H](c2cc(OC)c(OC)c(OC)c2)C2CCCCC2)c2cccc(OCc3cn(CCOCC(=O)Nc4cccc5c4C(=O)N(C4CCC(=O)NC4=O)C5=O)nn3)c2)cc1OC (stereo partly drawn) [MTQ204, (25)-(1R)-3-(3,4-Dimethoxyphenyl)-1-(3-((1-(2-(2-((2-(2,6-dioxopiperidin-3-yl)-1,3-dioxoisoindolin-4-yl)amino)-2-oxoethoxy)ethyl)-1H-1,2,3-triazol-4-yl)methoxy)phenyl)propyl1-((S)-2-cyclohexyl-2-(3,4,5-trimethoxyphenyl)acetyl)piperidine-2-carboxylate] | 19 ± 5 nM

Source: patent publication EP3875456A1, “HETERO-BIFUNCTIONAL PROTEOLYSIS-TARGETING CHIMERAS (PROTACS) FOR THE SELECTIVE DEGRADATION OF FK506-BINDING PROTEINS (FKBPS)” (Technische Universität Darmstadt, priority 2020, dated 2021)
